Laboratory results published in patent publication US8815903B2, “Indole derivative and pharmacologically acceptable salt thereof” (Kissei Pharmaceutical Co., Ltd., priority 2011, dated 2014).

Columns and labels:
rat EP1 receptor = biological target: T1, rat EP1 receptor (Rattus norvegicus, UniProt P70597); test: Test for confirmation of EP1 receptor antagonism (inhibition of PGE2-induced increase in intracellular calcium concentration); format: cell-based; conditions: rat EP1 receptor-expressing COS-1 cells; prostaglandin E2 10 nM; fluorescent calcium indicator, FDSS 7000
T1 construct: expressed in transfected cells
T1 sequence (P70597 1-405): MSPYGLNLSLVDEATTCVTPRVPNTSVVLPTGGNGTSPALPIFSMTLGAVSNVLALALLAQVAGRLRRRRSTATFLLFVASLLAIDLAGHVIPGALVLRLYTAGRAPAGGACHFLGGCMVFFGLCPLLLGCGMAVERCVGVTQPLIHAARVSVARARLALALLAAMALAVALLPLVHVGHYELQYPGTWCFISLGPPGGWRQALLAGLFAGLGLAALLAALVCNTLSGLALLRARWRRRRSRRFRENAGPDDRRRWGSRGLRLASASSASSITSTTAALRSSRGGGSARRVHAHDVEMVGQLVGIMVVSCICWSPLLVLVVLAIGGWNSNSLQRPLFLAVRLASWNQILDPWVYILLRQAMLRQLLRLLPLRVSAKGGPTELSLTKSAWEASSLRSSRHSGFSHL
Method: Test for Confirmation of EP1 Receptor Antagonism
(1) Preparation of Rat EP1 Expression Vector
Using Rat Kidney BD Marathon-Ready cDNA (Nippon Becton Dickinson Company, Ltd.) as a template, a forward primer shown in (SEQ ID NO:1), and a reverse primer shown in (SEQ ID NO:2), a first run of PCR was carried out using KOD-Plus-Ver 2.0 (Toyobo Co., Ltd.). Further, using this amplification product as a template, a forward primer shown in (SEQ ID NO:3), and a reverse primer shown in (SEQ ID NO:4), a second run of PCR was carried out in the same manner. The amplification product obtained by the second run of PCR was incorporated into a vector (pcDNA3.1 D/V5-His-TOPO (registered trademark), Invitrogen Japan K. K.). By a conventional method, the vector containing this amplification product was introduced to E. coli (One Shot TOP 10 Competent Cells, Invitrogen Corporation) to transform. This transformed E. coli was cultured in an LB agar medium for one day. After the culture, colonies were selected and cultured in an LB liquid medium containing 50 μg/mL of ampicillin. After the culture, the vector was purified using a QIAprep Spin Miniprep Kit (Qiagen K. K.). The base sequence of the insertion site of this vector (SEQ ID NO:5) was compared with the rat EP1 base sequence (Ptger1) registered as Accession No. NM_013100 in publicly-known database (NCBI), and as a result, they all matched except for a single base. Further, the amino acid sequence translated by the base sequence completely matched the amino acid sequence of the rat EP1 receptor registered as an NCBI Accession No. NP_037232. Therefore, it was confirmed that the cloned gene sequence was a base sequence of the rat EP1 receptor and the obtained amino acid sequence was that of the rat EP1 receptor. The pcDNA3.1 D/V5-His-TOPO (registered trademark) to which the nucleic acid shown in (SEQ ID NO:5) had been inserted was taken as a rat EP1-expressing vector.
(2) Preparation of Rat EP1 Receptor-Expressing Cells
COS-1 cells (Dainippon Sumitomo Pharma Co., Ltd.) were cultured until they reached confluence in an incubator at 37° C. under a 5% CO2 gas condition, using a D-MEM liquid medium (high glucose and L-glutamine contained, Invitrogen Corporation) to which a penicillin-streptomycin solution (Invitrogen Corporation, final concentration: 100 U/mL as benzylpenicillin; 100 μg/mL as streptomycin) as an antibiotic, MEM nonessential amino acids (Invitrogen Corporation, final concentration: 0.1 mM), and fetal calf serum (Sanko Junyaku Co., Ltd., final concentration: 10%) were added.
The cells that had reached confluence were stripped with 0.05% trypsin/0.53 mM EDTA.4Na, and resuspended in a D-MEM liquid medium (high glucose and L-glutamine contained, Invitrogen Corporation) to which an MEM nonessential amino acid (final concentration: 0.1 mM) and fetal calf serum (final concentration: 10%) were added. In each well of a Poly D-lysine-coated 96-well microplate (BD BioCoat (registered trademark), Nippon Becton Dickinson Company, Ltd.), this resuspended cell suspension culture was prepared to be 5×10^4 cells/well in 100 μL of the liquid medium, and 100 μL of the cell suspension was seeded on each well. After seeding, the cells were cultured in an incubator at 37° C. under a 5% CO2 gas condition. At a point when the cells for introduction of a rat EP1-expressing vector were adhered (about 2 hours after seeding), introduction of the rat EP1-expressing vector was carried out in the following order.
For introduction of the rat EP1-expressing vector, Lipofectamine 2000 (Invitrogen Japan K. K.) was used. The rat EP1-expressing vector was diluted with OPTI-MEM (registered trademark) I Reduced-Serum Medium (Invitrogen Japan K. K.) to 200 ng/25 μL/well, and at the same time, Lipofectamine 2000 (Invitrogen Japan K. K.) was also diluted with OPTI-MEM (registered trademark) I Reduced-Serum Medium (Invitrogen Japan K. K.) to 0.5 μL/25 μL/well, followed by incubation at room temperature for 5 minutes. […]

[1] = tested on: Sulprostone-Induced Bladder Contraction; test: Inhibitory effect of compound on sulprostone-induced bladder contraction; format: in vivo, rat; conditions: female SD rats, urethane anesthesia, sulprostone 0.3 mg/kg s.c., test agent 1.0 mg/kg intravenously; for Bladder Contraction Inhibition Rate 15 minutes: 15 minutes from administration; for Bladder Contraction Inhibition Rate 60 minutes: 60 minutes from administration
Source text: Inhibitory Effect of Compound on Sulprostone-Induced Bladder Contraction
Female SD rats were used. Under urethane anesthesia (1.25 g/kg, administered subcutaneously), a tracheal cannula (Size 8, HIBIKI) and a femoral vein cannula for administration (23 G needle-equipped PESO) were inserted thereinto. The bladder cannula (PESO) was inserted from the bladder apex. The bladder cannula was connected to a three-way stopcock, and then, one was connected to a pressure transducer and the other was connected to a syringe filled with saline. Saline was injected to the bladder at an injection rate of 3.6 mL/hour and the bladder contraction pressure was recorded at the time of injection with a recorder (RECTI-HORITZ-8K, NEC Corporation). After 10 minutes from stabilization of the bladder contraction pressure during urination, sulprostone was administered subcutaneously (0.3 mg/kg). Then, at the time point when the bladder contraction pressure became constant, a test agent was administered intravenously (1.0 mg/kg). An average bladder contraction pressure during the 10 minute period before administration of sulprostone was taken as a baseline (0%). Further, an average bladder contraction pressure during the 10 minute period directly before administration of the test agent was taken as a maximum bladder contraction pressure (100%). The average bladder contraction pressures were measured during 5 minutes before and after at 15 minutes and 60 minutes from administration of the test agent. The ratio of this measured value to the maximum bladder contraction pressure was calculated by the following equation and taken as an average bladder contraction rate after administration of the test agent: (Average Bladder Contraction Rate after Administration of Test Agent (%))=[(Average Bladder Contraction Pressure after Administration of Test Agent)/(Maximum Bladder Contraction Pressure)]×100 EQUATION 1
In addition, the difference between the maximum bladder contraction rate (100%) and the average bladder contraction rate (%) after administration of the test agent was calculated by the following equation and taken as a bladder contraction inhibition rate of the test agent: (Bladder Contraction Inhibition Rate)=100%−(Average Bladder Contraction Rate after Administration of Test Agent (%)) EQUATION 2

Row | SMILES | IC50 (rat EP1 receptor) [nM] | Bladder Contraction Inhibition Rate 15 minutes [1] [%] | Bladder Contraction Inhibition Rate 60 minutes [1] [%]
1 | Cc1ccc2c(Cc3cccc(C(=O)NS(C)(=O)=O)n3)c(-c3ccccc3)[nH]c2c1 [Example 3-1, N-Methanesulfonyl-6-(6-methyl-2-phenyl-1H-indol-3-ylmethyl)pyridine-2-carboxamide] | 33 | 77.3 | 78.2
2 | CS(=O)(=O)NC(=O)c1cccc(Cc2c(-c3ccccc3)[nH]c3cc(C4CC4)ccc23)n1 [Example 2-2, 6-(6-Cyclopropyl-2-phenyl-1H-indol-3-ylmethyl)-N-methanesulfonylpyridine-2-carboxamide] | 29 | 90.0 | 70.4
3 | CCS(=O)(=O)NC(=O)c1cccc(Cc2c(-c3ccsc3)[nH]c3cc(OC)ccc23)n1 [Example 3-35, N-ethanesulfonyl-6-(6-methoxy-2-thiophen-3-yl-1H-indol-3-ylmethyl)pyridine-2-carboxamide] | 46 | 45.9 | 45.1
4 | Cc1ccc2c(Cc3cccc(-c4nnn[nH]4)n3)c(-c3ccccc3)[nH]c2c1 [Example 5-3, 6-methyl-2-phenyl-3-[6-(1H-tetrazol-5-yl)pyridin-2-ylmethyl]-1H-indole] | 15 | 78.2 | 75.8
5 | O=c1[nH]c(-c2cccc(Cc3c(-c4ccoc4)[nH]c4cc(C5CC5)ccc34)n2)no1 [Example 12-13] | 26 | 72.9 | 96.0
6 | COc1cc2[nH]c(-c3ccccc3)c(Cc3cccc(C(=O)NS(C)(=O)=O)n3)c2cc1F [Example 3-9, 6-(5-fluoro-6-methoxy-2-phenyl-1H-indol-3-ylmethyl)-N-methanesulfonylpyridine-2-carboxamide] | 25 | 76.4 | 78.9
7 | Cc1ccc2c(Cc3cccc(-c4noc(=O)[nH]4)n3)c(-c3ccoc3)[nH]c2c1 [Example 12-11] | 37 | 74.9 | 46.7
8 | Cc1ccc2c(Cc3cccc(-c4nnn[nH]4)n3)c(-c3ccsc3)[nH]c2c1 [Example 5-13] | 30 |  | 
9 | COc1ccc2c(Cc3cccc(-c4noc(=S)[nH]4)n3)c(-c3ccccc3)[nH]c2c1 [Example 9, 3-[6-(6-Methoxy-2-phenyl-1H-indol-3-ylmethyl)pyridin-2-yl]-4,5-dihydro-1,2,4-oxadiazole-5-thione] | 50 |  | 
10 | O=c1[nH]c(-c2cccc(Cc3c(-c4ccccc4)[nH]c4cc(C5CC5)ccc34)n2)no1 [Example 12-6] | 40 |  | 
11 | COc1ccc2c(Cc3cccc(-c4nnn[nH]4)n3)c(-c3cccnc3)[nH]c2c1 [Example 5-10] | 13 |  | 
12 | COc1ccc2c(Cc3cccc(C(=O)NS(C)(=O)=O)n3)c(-c3csc(C)c3)[nH]c2c1 [Example 3-20] | 68 |  | 
13 | COc1cc2[nH]c(-c3ccccc3)c(Cc3cccc(-c4nnn[nH]4)n3)c2cc1F [Example 5-8] | 12 |  | 
14 | CCCS(=O)(=O)NC(=O)c1cccc(Cc2c(C(C)(C)C)[nH]c3cc(OC)c(Cl)cc23)n1 [Example 3-5] | 55 |  | 
15 | CCS(=O)(=O)NC(=O)c1cccc(Cc2c(-c3ccoc3)[nH]c3cc(OC)ccc23)n1 [Example 3-23] | 58 |  | 

Second part, led by results:

Row | IC50 (rat EP1 receptor) [nM] | SMILES | Bladder Contraction Inhibition Rate 15 minutes [1] [%] | Bladder Contraction Inhibition Rate 60 minutes [1] [%]
16 | 14 | Cc1ccc2c(Cc3cccc(-c4nnn[nH]4)n3)c(C3(C)CC3)[nH]c2c1 [Example 17-12, 6-methyl-2-(1-methylcyclopropyl)-3-[6-(1H-tetrazol-5-yl)pyridin-2-ylmethyl]-1H-indole] | 81.9 | 74.7
17 | 24 | COc1cc2[nH]c(-c3ccccc3)c(Cc3cccc(C(=O)NC#N)n3)c2cc1F [Example 16-3] |  | 
18 | 14 | COc1cc2[nH]c(C3(C)CC3)c(Cc3cccc(-c4nnn[nH]4)n3)c2cc1C [Example 20-4, 6-methoxy-5-methyl-2-(1-methylcyclopropyl)-3-[6-(1H-tetrazol-5-yl)pyridin-2-ylmethyl]-1H-indole] |  | 
19 | 27 | COc1cc2[nH]c(-c3ccccc3)c(Cc3cccc(C(=O)NS(=O)(=O)c4ccccc4)n3)c2cc1F [Example 18-11] |  | 
20 | 48 | COc1ccc2c(Cc3cccc(C(=O)NC#N)n3)c(C(C)(C)C)[nH]c2c1 [Example 16-2] |  | 
21 | 23 | COc1ccc2c(Cc3cccc(-c4nnn[nH]4)n3)c(C(C)C)[nH]c2c1 [Example 17-5] |  | 
22 | 10 | c1cc(Cc2c(-c3ccoc3)[nH]c3cc(C4CC4)ccc23)nc(-c2nnn[nH]2)c1 [Example 17-9] |  | 
23 | 22 | CCC(C)c1[nH]c2cc(OC)ccc2c1Cc1cccc(-c2nnn[nH]2)n1 (centres unmarked) [Example 17-10] |  | 
24 | 26 | Cc1ccc2c(Cc3cccc(C(=O)NS(=O)(=O)C(C)C)n3)c(-c3ccsc3)[nH]c2c1 [Example 18-10] |  | 
25 | 24 | CC1(c2[nH]c3cc(Cl)ccc3c2Cc2cccc(-c3nnn[nH]3)n2)CC1 [Example 17-14, 6-chloro-2-(1-methylcyclopropyl)-3-[6-(1H-tetrazol-5-yl)pyridin-2-ylmethyl]-1H-indole] |  | 
